In article PMC4322967, “Afatinib circumvents multidrug resistance via dually inhibiting ATP binding cassette subfamily G member 2 in vitro and in vivo” (Oncotarget, 2014):

Assays:
Type in all cases: cell-based
[1] = target: T1, ABCG2 (Homo sapiens, UniProt Q9UNQ0); assay: vanadate-sensitive ATPase assay in crude membranes; also 5D3 shift and PhA efflux inhibition in HEK293/ABCG2 cells; design: crude membranes from ABCG2-expressing High Five insect cells
T1 sequence (Q9UNQ0 1-655): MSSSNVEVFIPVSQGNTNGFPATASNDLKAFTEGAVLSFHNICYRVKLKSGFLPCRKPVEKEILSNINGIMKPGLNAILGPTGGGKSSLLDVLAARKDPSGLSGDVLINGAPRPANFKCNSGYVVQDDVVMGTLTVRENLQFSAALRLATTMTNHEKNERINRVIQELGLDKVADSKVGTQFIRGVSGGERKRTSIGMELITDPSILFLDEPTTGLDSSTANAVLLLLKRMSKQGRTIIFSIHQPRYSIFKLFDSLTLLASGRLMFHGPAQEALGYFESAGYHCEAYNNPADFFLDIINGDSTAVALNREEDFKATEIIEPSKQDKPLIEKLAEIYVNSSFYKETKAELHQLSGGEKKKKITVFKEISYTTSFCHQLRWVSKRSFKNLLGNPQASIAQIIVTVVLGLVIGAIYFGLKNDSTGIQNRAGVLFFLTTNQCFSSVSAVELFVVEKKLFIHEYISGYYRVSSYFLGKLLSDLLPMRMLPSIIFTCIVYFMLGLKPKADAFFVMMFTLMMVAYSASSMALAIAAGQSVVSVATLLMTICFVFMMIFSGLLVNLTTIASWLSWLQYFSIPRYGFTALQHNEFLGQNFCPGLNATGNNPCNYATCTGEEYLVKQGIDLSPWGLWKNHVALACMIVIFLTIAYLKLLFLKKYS

[2] = target: T1, ABCG2; assay: 5D3 conformational antibody shift at […], flow cytometry; design: ABCG2-stably transfected HEK293 cells
[3] = target: T1, ABCG2; design: ABCG2-stably transfected HEK293 cells
[4] = target: T1, ABCG2; assay: flow cytometry efflux of […] PhA in HEK293/ABCG2 versus pcDNA3 cells; design: HEK293 cells stably transfected with ABCG2
[5] = target: T1, ABCG2; assay: 5D3 conformational antibody shift at […], flow cytometry; design: ABCG2-stably transfected HEK293 cells; remark: listed apart in the source

CN(C)C/C=C/C(=O)Nc1cc2c(Nc3ccc(F)c(Cl)c3)ncnc2cc1O[C@H]1CCOC1 [Afatinib]
vanadate-sensitive ATPase assay in crude membranes; also 5D3 shift and PhA efflu [1]: afatinib was found to inhibit the ATPase activity of ABCG2 in a dose dependent manner

COc1ccc2c3c([nH]c2c1)[C@H](C=C(C)C)N1C(=O)[C@@H]2CCCN2C(=O)[C@@H]1C3 [fumitremorgin C]
5D3 conformational antibody shift at 5 μM, flow cytometry [2]: Other known ABCG2 inhibitors (including FTC, tariquidar and erlotinib) tested were also shown to notably increase 5D3 labeling

C#Cc1cccc(Nc2ncnc3cc(OCCOC)c(OCCOC)cc23)c1 [erlotinib]
5D3 conformational antibody shift at 10 μM, flow cytometry [3]: Other known ABCG2 inhibitors (including FTC, tariquidar and erlotinib) tested were also shown to notably increase 5D3 labeling

C=Cc1c(C)c2cc3nc(c4c5[nH]c(cc6nc(cc1[nH]2)C(C)=C6CC)c(C)c5C(=O)[C@@H]4C(=O)OC)[C@@H](CCC(=O)O)[C@@H]3C [pheophorbide A]
flow cytometry efflux of 1 μM PhA in HEK293/ABCG2 versus pcDNA3 cells [4]: fluorescent ABCG2 probe substrate (pheophorbide A, PhA) for efflux was studied in HEK293/ABCG2 cells by flow cytometry analysis

COc1cc2c(cc1OC)CN(CCc1ccc(NC(=O)c3cc(OC)c(OC)cc3NC(=O)c3cnc4ccccc4c3)cc1)CC2 [tariquidar]
5D3 conformational antibody shift at 1 μM, flow cytometry [5]: Other known ABCG2 inhibitors (including FTC, tariquidar and erlotinib) tested were also shown to notably increase 5D3 labeling
